Series [1] is described as follows: Stability under high humidity conditions (water content by Karl-Fischer method). The series is classed as physicochemical. Conditions: for Final moisture content - After 48 hours at 25° C. at humidity of 60%: humidity 60%; for Final moisture content - After 48 hours at 25° C. at humidity of 60% / Final moisture content - After 48 hours at 40° C. at humidity of 75% / Initial moisture content (%): Karl-Fischer; for Final moisture content - After 48 hours at 40° C. at humidity of 75%: humidity 75%; for Initial moisture content (%): before storage; for Hygroscopicity (conclusion in words): conclusion from Table 1.

A short description of series [2]: Solubility by the shake flask method. Conditions: for Solubility (mg/ml): Medium: Water.
Protocol: General conditions: Room temperature (25° C.), stirring speed: 200 RPM, Analytical method: UV
A further series deals with Mice. The series is described as follows: Maximum tolerated dose (MTD) for 14 days. Conditions: for MTD (mg/kg, po): Mice, 14 days. The class given is in vivo. The text has this:
Maximum Tolerated Dose—Non-Toxic Nature

Series [3] in a line: Flow properties, angle of repose. The class given is physicochemical.
The test system of series [4] is K562 cell line, chronic myelogenous leukemia (CML). The series is described as follows: Activity in cell culture, K562 cell proliferation. The class given is cell-based. Conditions: for IC50: K562, 0.312×10^5 cells/ml, 72 Hrs, 10 μM to 0.156 μM; for Potency in inhibiting cell proliferation compared with Imatinib: K562.
Series [5] relates to T315I cell line, chronic myelogenous leukemia (CML) mutant. Put plainly: Activity in cell culture, T315I cell proliferation. The class given is cell-based. Conditions: for IC50: 0.625×10^5 cells/ml, 10 μM to 0.156 μM.
Series [6] in a line: Bioavailability study in mice. The series is classed as in vivo.
Setting [7] is: 0.1N HCl, 25 °C, simulated gastric fluid, thermodynamic from solid.

Converted amounts (≈) assume the structure as drawn.

The values that follow come from patent US8735415B2, “Acid addition salts of (3,5-Bis trifluoromethyl)-N-[4-methyl-3-(4-pyridin-3yl-pyrimidin-2ylamino)-phenyl]-benzamide” (Natco Pharma Limited, priority 2004, dated 2014).

A word on the solubility: it is how much of the substance goes into solution per volume. A low value points to a poorly soluble substance. Regarding `Cc1ccc(NC(=O)c2cc(C(F)(F)F)cc(C(F)(F)F)c2)cc1Nc1nccc(-c2cccnc2)n1.Cl` [(3,5-Bis trifluoromethyl)-N-[4-methyl-3-(4-pyridin-3-yl-pyrimidin-2-ylamino)-phenyl]-benzamide hydrochloride], in series [1], the “Final moisture content - After 48 hours at 25° C. at humidity of 60%” value (“Final moisture content … of 60%” for short) worked out at 0.7%, the “Final moisture content - After 48 hours at 40° C. at humidity of 75%” value (from here on “Final moisture content … of 75%”) was determined as 0.7%, the “Initial moisture content (%)” value is on record as 0.6% and the “Hygroscopicity (conclusion in words)” value is listed as “non-hygroscopic”. The “solubility” value in series [2] (Medium: 0.1N HCl, 25° C., 200 RPM, UV) was 13.4 µg/mL. In series [2] (25° C., 200 RPM, UV), the “Solubility (mg/ml)” value was “Almost no”.
On to `CS(=O)(=O)O.Cc1ccc(NC(=O)c2cc(C(F)(F)F)cc(C(F)(F)F)c2)cc1Nc1nccc(-c2cccnc2)n1` [(3,5-Bis trifluoromethyl)-N-[4-methyl-3-(4-pyridin-3-yl-pyrimidin-2-ylamino)-phenyl]-benzamide methane sulfonate], for which, in series [1], the “Final moisture content … of 60%” value is given as 0.7%, the “Final moisture content … of 75%” value was found to be 0.7%, the “Initial moisture content (%)” value was found to be 0.6% and the “Hygroscopicity (conclusion in words)” value was “non-hygroscopic”.
The term IC50 denotes the point on the concentration scale where inhibition reaches its midpoint. A lower IC50 goes with inhibition by little substance. Broadly, the AUC is concentration integrated over time. One may read the Cmax as the peak of the concentration-time curve. What is called Tmax is the time from dosing to the highest level. With `Cc1ccc(NC(=O)c2cc(C(F)(F)F)cc(C(F)(F)F)c2)cc1Nc1nccc(-c2cccnc2)n1` [AN-019, (3,5-Bistrifluoromethyl)-N-[4-methyl-3-(4-pyridin-3-yl-pyrimidin-2-ylamino)-phenyl]-benzamide], the “MTD (mg/kg, po)” value with Mice is recorded as 500.0 mg/kg, po. Moreover, the “Angle of Repose (degrees °)” value in series [3] stood at 41.57 degrees °. In addition, the IC50 in series [4] (Homo sapiens, K562, 72 h) stood at 206 nM; in series [5] (72 h), 99.3 nM. In addition, the “Potency in inhibiting cell proliferation compared with Imatinib” value in series [4] and in series [5] was “more potent than Imatinib” each time. Besides, in series [6], the area under the curve (AUC) was found to be 611.46 ng·h/mL. The compound also had a Cmax in series [6] (mouse, in vivo) of 93.7 ng/mL. Besides, the Tmax in series [6] (mouse, in vivo) was 6 h. The same compound came in with a solubility in series [2] (setting [7]) of 1.3 µg/mL (≈ 2.51 µM). In series [2] (25° C., 200 RPM, UV), the “Solubility (mg/ml)” value is recorded as “Almost no”.
`Cc1ccc(NC(=O)c2cc(C(F)(F)F)cc(C(F)(F)F)c2)cc1Nc1nccc(-c2cccnc2)n1.Cc1ccc(S(=O)(=O)O)cc1` [AN-019T, (3,5-Bis trifluoromethyl)-N-[4-methyl-3-(4-pyridin-3-yl-pyrimidin-2-ylamino)-phenyl]-benzamide 4-toluene sulfonate monohydrate]: in series [1], the “Final moisture content … of 60%” value turned out to be 2.7%. In series [1], the “Final moisture content … of 75%” value was 2.8%. Moreover, in series [1], the “Initial moisture content (%)” value came out at 2.7%. Also, the “Hygroscopicity (conclusion in words)” value in series [1] is “non-hygroscopic”. Moreover, the “MTD (mg/kg, po)” value with Mice is reported as 1000.0 mg/kg, po. For the same compound, the “Toxicity compared with the base” value with Mice (conclusion from Table 3, mice) is reported as “substantially less toxic than the corresponding base”. Besides, the “Angle of Repose (degrees °)” value in series [3] turned out to be 30.74 degrees °. Also, in series [3] (conclusion from Table 4), the “Flow properties compared with the base” value was “a lower angle of repose and better flow properties when compared with corresponding base”. Moreover, the “Potency in inhibiting cell proliferation compared with Imatinib” value in series [4] and in series [5] was “more potent than Imatinib” in each case. Besides, the IC50 in series [4] (monohydrate) was 265 nM; in series [5] (72 Hrs, monohydrate), 109 nM. Further, the solubility in series [2] (setting [7]) was 40.2 µg/mL; in series [2] (water, 25 °C, thermodynamic from solid), 7.8 µg/mL. Also, the “Solubility compared with the other salts” value in series [2] (conclusion from Table 2) was “improved solubility properties among other salts investigated”.
